Test results as given in US20230120205A1, “NERVE CELL DEGENERATION INHIBITOR” (KYOTO UNIVERSITY, priority 2020, published 2023).

Tests used:
[1] = system: ALS7 (C9orf72) cell-derived motor neurons; test: RNA foci inhibitory activity (FISH with Cy3 probe, high-content analysis); assay type: cell-based, human; settings: one day after addition, vs DMSO
Text: Using ALS7 (C9orf72) cell line described in K. Imamura et al, Science Translational Medicine 2017, 9, eaaf3962, the effect of the compound used in the present invention on RNA foci was examined. The cell line is stable cell line prepared by introducing the tetracycline-induced Lhx3, Ngn2 and Isl1 genes into iPS cell lines established from a familial ALS patient with abnormal expansion of the G4C2 repeat of the C9orf72 gene. Therefore, ALS7 (C9orf72) cell is an ALS cell model that rapidly (within about 7 days) differentiates into motor neurons when tetracycline or a derivative thereof is added to the medium, and after differentiation, spontaneously goes on to cell death (see the above documents). […] ALS7 (C9orf72) cells were cultured on feeder cells (mitomycin-treated SNL cells) using an iPS cell maintenance medium consisting of Primate ES Cell medium (ReproCell, […]), 4 ng/ml hbFGF (Wako, 060-04543), 50 μg/ml G418 (Nacalai, 09380-86) and Penicillin-Streptomycin (Thermo Fisher Scientific, 15140-122). The method for seeding ALS7 (C9orf72) cells on an assay plate is as follows. Matrigel (BD Falcon, D2650) was diluted 20-fold with an assay medium consisting of DMEM/F-12 (1:1) (Thermo Fisher Scientific, 11330-057), N2 supplement (Thermo Fisher Scientific, 17502-048), Penicillin-Streptomycin (Thermo Fisher Scientific, 15140-122), 10 ng/ml recombinant human BDNF (PeproTech, 450-02), 10 ng/ml recombinant human GDNF (PeproTech, 450-10), 10 ng/ml recombinant human NT-3 (PeproTech, 450-03), 1 μM Retinoic acid (Sigma, R2625), 1 μg/ml Doxycycline (Clontech, 631311), 1 μM SAG (Enzo life sciences, ALX-270-426-M001) and 10 μ[…] (Wako, 253-00513), and then a 384-well plate (CellCarrier-384 Ultra, PerkinElmer, 6057300) was coated with the diluted solution. The ALS7 (C9orf72) cells were then suspended in the assay medium, and seeded on the matrigel-coated assay plate at 1×10^4 cells per well. The fluorescent staining method of RNA foci in motor neurons differentiated from ALS7 (C9orf72) cells is as follows. For the ALS7 (C9orf72) cells seeded on the assay plate according to the method described in the previous section, the assay medium containing no Y-27632 was added to the plate four days after seeding, and the cells were cultured. Seven days after seeding, the assay medium (Retinoic Acid, Doxycycline, SAG, Y-27632-free) containing the test compound at a predetermined concentration was added to the plate by medium exchange, and one day after addition of the test compound, PFA (Wako, 163-20145) was added to the plate to fix the cells. After washing with PBS (Wako, 045-29795) was repeated three times, ice-cold methanol (Wako, 131-01826) was added to the plate, and the plate was allowed to stand for 10 minutes at room temperature. DNA probe [[NT] ID NO:1), SIGMA genosys, custom synthesis] was denatured at 80° C. for 75 sec, prepared to 2 μg/μL in a hybri buffer consisting of 50% formamide (Wako, 066-02301), 2×SSC (Nippon Gene, 319-90015), 50 mM sodium phosphate (TEKNOVA, […]), 10% Dextran sulfate (SIGMA, […]), 0.1 mg/mL yeast tRNA ([…], 15401029) and RNase free water (QIAGEN, 129112), and added to the plate, and the plate was allowed to stand at 37° C. for 16 to 24 hrs to bind the probe to the RNA foci. A wash buffer consisting of 50% formamide, 1×SSC and RNase free water was added to the plate, and the plate was allowed to stand at 37° C. for 30 minutes, followed by washing with PBS. Hoechst (invitrogen, H3569) diluted 5000-fold with by PBS was added to the plate, and the plate was allowed to stand for 20 minutes at room temperature to stain the cell nuclei, followed by washing with PBS. The RNA foci in the cell nuclei were detected by analyzing the above treated plate (measuring Cy3 fluorescence) with a high-content analyzer. The high-content analyzer used was Opera Phenix from PerkinElmer. […] The method for detecting the activity of the test compound is as follows.

[2] = system: ALS7 (C9orf72) cell-derived motor neurons; test: Cytotoxicity: intracellular ATP level (CellTiter-Glo); assay type: cell-based, human
Method: In order to examine the cytotoxicity of the test compound, the intracellular ATP level was measured.
ALS7 (C9orf72) cells were seeded on an assay plate in the same procedure as in Experimental Example 1. Four days after seeding, the assay medium containing no Y-27632 was added to the plate, and the cells were cultured until seven days after seeding, and the assay medium (Retinoic Acid, Doxycycline, SAG, Y-27632-free) containing the test compound at a predetermined concentration was added to the plate by medium exchange. 24 hr or 48 hr after addition of the test compound, the medium was removed, and CellTiter-Glo Luminescent Cell Viability Assay (Promega, G7570) was performed.
The method for detecting the cytotoxicity of the test compound is as follows.
As a negative control, the cells cultured in the assay medium supplemented with DMSO instead of the test compound were used.
The degree of the effect on the intracellular ATP level in the test compound-treated cells was defined as the ATP level of the test compound compared with the negative control, which was calculated by the following formula.
ATP level of the test compound compared to the negative control=X/C×100
X: ATP level in the test compound group, C: ATP level in the DMSO group
When the intracellular ATP level was less than 0.5 times or more than 1.5 times the intracellular ATP level in the negative control, it was judged to be cytotoxic.

| Structure (SMILES) | RNA foci inhibitory activity % ([1]; 1 μM test compound) | RNA foci inhibitory activity % ([1]; 3 μM test compound) | RNA foci inhibitory activity % ([1]; 10 μM test compound) | ATP level % compared to negative control ([2]; After 24 hr, 1 μM) | ATP level % compared to negative control ([2]; After 24 hr, 3 μM) | ATP level % compared to negative control ([2]; After 24 hr, 10 μM) | ATP level % compared to negative control ([2]; After 48 hr, 1 μM) | ATP level % compared to negative control ([2]; After 48 hr, 3 μM) | ATP level % compared to negative control ([2]; After 48 hr, 10 μM) |
| --- | --- | --- | --- | --- | --- | --- | --- | --- | --- |
| COc1cc(F)ccc1-c1ncnc(Nc2cccc(CS(C)(=N)=O)c2)n1 (stereo not drawn) [Compound No. 1, 4-(4-fluoro-2-methoxyphenyl)-N-{3-[(S-methanesulfonimidoyl)methyl]phenyl}-1,3,5-triazin-2-amine] | 48% | 58% | 46% | 92% | 107% | 134% | 91% | 89% | 122% |
| COc1ccccc1-c1ncnc(Nc2cccc(CS(N)(=O)=O)c2)n1 [Compound No. 2, 1-(3-{[4-(2-methoxyphenyl)-1,3,5-triazin-2-yl]amino}phenyl)methanesulfonamide] | 20% | 49% | 55% | 98% | 89% | 101% | 99% | 74% | 53% |
| COc1cc(Cl)ccc1-c1ncnc(Nc2cccc(CS(N)(=O)=O)c2)n1 [Compound No. 3, 1-(3-{[4-(4-chloro-2-methoxyphenyl)-1,3,5-triazin-2-yl]amino}phenyl)methanesulfonamide] | 16% | 55% | 51% | 104% | 97% | 106% | 105% | 87% | 69% |
| NS(=O)(=O)Cc1cccc(Nc2ncnc(-c3ccccc3OCc3ccccc3)n2)c1.O=C(O)C(F)(F)F [Compound No. 4a, 1-[3-({4-[2-(benzyloxy)phenyl]-1,3,5-triazin-2-yl}amino)phenyl]methanesulfonamide trifluoroacetate] | 50% | 45% | 45% | 113% | 128% | 140% | 80% | 101% | 115% |
| NS(=O)(=O)Cc1cccc(Nc2ncnc(-c3ccccc3OCc3ccccc3)n2)c1 [Compound No. 4b, 1-[3-({4-[2-(benzyloxy)phenyl]-1,3,5-triazin-2-yl}amino)phenyl]methanesulfonamide] | 52% | 41% | 47% | 105% | 121% | 134% | 73% | 97% | 102% |
| CS(=N)(=O)Cc1cccc(Nc2ncnc(-c3ccccc3OCc3ccc(Cl)c(Cl)c3)n2)c1 (stereo not drawn) [Compound No. 5, 4-{2-[(3,4-dichlorophenyl)methoxy]phenyl}-N-{3-[(S-methanesulfonimidoyl)methyl]phenyl}-1,3,5-triazin-2-amine] | 61% | 44% | 50% | 98% | 118% | 131% | 83% | 94% | 108% |
| CCOC(=O)N=S(C)(=O)Cc1cccc(Nc2ncnc(-c3cccc4c3OCCO4)n2)c1 (stereo not drawn) [Compound No. 6, ethyl {[(3-{[4-(2,3-dihydro-1,4-benzodioxin-5-yl)-1,3,5-triazin-2-yl]amino}phenyl)methyl](methyl)oxo-λ^6-sulfanylidene}carbamate] | 62% | 48% | 48% | 89% | 107% | 130% | 77% | 71% | 124% |
| CCOC(=O)N=S(C)(=O)Cc1cccc(Nc2ncnc(-c3cccc4c3OCC4)n2)c1 (stereo not drawn) [Compound No. 7, ethyl {[(3-{[4-(2,3-dihydro-1-benzofuran-7-yl)-1,3,5-triazin-2-yl]amino}phenyl)methyl](methyl)oxo-λ^6-sulfanylidene}carbamate] | 47% | 55% | 43% | 89% | 105% | 126% | 86% | 87% | 112% |
